Measured values published in the Kinase Knowledgebase extract (Sharma et al. 2016).

Target: CDK2 (human) (UniProt P24941)
Experiment: Enzyme Assay

Row | SMILES | IC50
1 | O=[N+]([O-])c1ccc2c(c1)C(c1ccccc1Cl)=Nc1c(n[nH]c1-n1cccn1)N2 | 10 to 990 nM
2 | O=C(c1ccc2c(c1)C(c1ccccc1F)=Nc1c[nH]nc1N2)N1CCOCC1 | 10 to 990 nM
3 | O=Cc1[nH]nc2c1N=C(c1ccccc1Cl)c1cc([N+](=O)[O-])ccc1N2 | 10 to 990 nM
4 | COCc1[nH]nc2c1N=C(c1ccccc1Cl)c1cc([N+](=O)[O-])ccc1N2 | 10 to 990 nM
5 | O=[N+]([O-])c1ccc2c(c1)C(c1ccccc1Cl)=Nc1c(n[nH]c1-c1ccco1)N2 | 10 to 990 nM
6 | Cc1[nH]nc2c1N=C(c1ccccc1F)c1cc(C(=O)N3CCOCC3)ccc1N2 | 10 to 990 nM
7 | Cc1[nH]nc2c1N=C(c1ccccc1)c1cc(F)ccc1N2 | 10 to 990 nM
8 | O=[N+]([O-])c1ccc2c(c1)C(c1ccccc1C(F)(F)F)=Nc1c[nH]nc1N2 | 10 to 990 nM
9 | Cc1[nH]nc2c1N=C(c1ccccc1F)c1cc(C(=O)NCCN3CCOCC3)ccc1N2 | 10 to 990 nM
10 | O=[N+]([O-])c1ccc2c(c1)C(c1ccccc1Cl)=Nc1c(n[nH]c1C1CC1)N2 | 10 to 990 nM
11 | O=[N+]([O-])c1ccc2c(c1)C(c1ccccc1Cl)=Nc1c(n[nH]c1-c1nccs1)N2 | 10 to 990 nM
12 | C=CC(=O)Nc1ccc2c(c1)C(c1ccccc1Cl)=Nc1c(n[nH]c1C)N2 | 10 to 990 nM
13 | O=[N+]([O-])c1ccc2c(c1)C(c1ccccc1Cl)=Nc1c(n[nH]c1-c1ccc[nH]1)N2 | 10 to 990 nM
14 | Cc1[nH]nc2c1N=C(c1ccccc1Cl)c1cc(NS(=O)(=O)N3CCOCC3)ccc1N2 | 10 to 990 nM
15 | Cc1[nH]nc2c1N=C(c1ccccc1)c1cc(Cl)ccc1N2 | 10 to 990 nM
16 | NNC(=O)c1[nH]nc2c1N=C(c1ccccc1Cl)c1cc([N+](=O)[O-])ccc1N2 | 10 to 990 nM
17 | N#Cc1ccc2c(c1)C(c1ccccc1F)=Nc1c[nH]nc1N2 | 10 to 990 nM
18 | O=[N+]([O-])c1ccc2c(c1)C(c1ccccc1)=Nc1c(n[nH]c1C1CC1)N2 | 10 to 990 nM
19 | N#Cc1ccc2c(c1)C(c1ccccc1F)=Nc1c(n[nH]c1CO)N2 | 10 to 990 nM
20 | O=[N+]([O-])c1ccc2c(c1)C(c1ccccc1Cl)=Nc1c(n[nH]c1-c1cccc3c1OCO3)N2 | 10 to 990 nM
21 | O=[N+]([O-])c1ccc2c(c1)C(c1ccccc1Cl)=Nc1c(n[nH]c1C(F)(F)F)N2 | 10 to 990 nM
22 | O=[N+]([O-])c1ccc2c(c1)C(c1ccccc1Cl)=Nc1c(n[nH]c1-c1ccc(OC(F)(F)F)cc1)N2 | 10 to 990 nM
23 | Cc1cccc(S)c1-c1[nH]nc2c1N=C(c1ccccc1Cl)c1cc([N+](=O)[O-])ccc1N2 | 10 to 990 nM
24 | Clc1ccccc1C1=Nc2c[nH]nc2Nc2ccccc21 | 10 to 990 nM
25 | O=[N+]([O-])c1cccc(-c2[nH]nc3c2N=C(c2ccccc2Cl)c2cc([N+](=O)[O-])ccc2N3)c1 | 10 to 990 nM

Row | SMILES | IC50
26 | O=[N+]([O-])c1ccc2c(c1)C(c1ccccc1Cl)=Nc1c(n[nH]c1-c1ccccc1)N2 | 10 to 990 nM
27 | CSc1ccc(-c2[nH]nc3c2N=C(c2ccccc2Cl)c2cc([N+](=O)[O-])ccc2N3)cc1 | 10 to 990 nM
28 | O=[N+]([O-])c1cccc(C2=Nc3c[nH]nc3Nc3ccc([N+](=O)[O-])cc32)c1 | 10 to 990 nM
29 | CCOC(=O)c1ccc2c(c1)C(c1ccccc1F)=Nc1c[nH]nc1N2 | 10 to 990 nM
30 | N#Cc1[nH]nc2c1N=C(c1ccccc1Cl)c1cc([N+](=O)[O-])ccc1N2 | 10 to 990 nM
31 | Cc1[nH]nc2c1N=C(c1ccccc1F)c1cc(I)ccc1N2 | 10 to 990 nM
32 | Cc1[nH]nc2c1N=C(c1ccccc1F)c1cc(C(=O)NCCO)ccc1N2 | 10 to 990 nM
33 | Cc1[nH]nc2c1N=C(c1ccccc1Cl)c1ccccc1N2 | 10 to 990 nM
34 | Cc1[nH]nc2c1N=C(c1ccccc1F)c1cc([N+](=O)[O-])ccc1N2 | 10 to 990 nM
35 | Cc1[nH]nc2c1N=C(c1ccccc1)c1ccccc1N2 | 10 to 990 nM
36 | O=[N+]([O-])c1ccc2c(c1)C(c1ccccc1Cl)=Nc1c(n[nH]c1-c1cccc(S)c1)N2 | 10 to 990 nM
37 | O=[N+]([O-])c1ccc2c(c1)C(c1ccccc1Cl)=Nc1c(n[nH]c1-c1ccncc1)N2 | 10 to 990 nM
38 | CCc1[nH]nc2c1N=C(c1ccccc1Cl)c1cc([N+](=O)[O-])ccc1N2 | 10 to 990 nM
39 | C=Cc1[nH]nc2c1N=C(c1ccccc1Cl)c1cc([N+](=O)[O-])ccc1N2 | 10 to 990 nM
40 | CC(C)c1[nH]nc2c1N=C(c1ccccc1Cl)c1cc(N)ccc1N2 | 10 to 990 nM
41 | CCOC(=O)c1ccc2c(c1)C(c1ccccc1F)=Nc1c(n[nH]c1C)N2 | 10 to 990 nM
42 | Cc1[nH]nc2c1N=C(c1ccccc1F)c1cc(Cl)ccc1N2 | 10 to 990 nM
43 | O=[N+]([O-])c1ccc2c(c1)C(c1ccccc1F)=Nc1c[nH]nc1N2 | 10 to 990 nM
44 | Cc1[nH]nc2c1N=C(c1ccccc1Cl)c1cc(NS(=O)(=O)N(C)C)ccc1N2 | 10 to 990 nM
45 | CC(C)c1[nH]nc2c1N=C(c1ccccc1Cl)c1cc([N+](=O)[O-])ccc1N2 | 10 to 990 nM
46 | O=[N+]([O-])c1ccc2c(c1)C(c1ccccc1Cl)=Nc1c(n[nH]c1-c1cccnc1)N2 | 10 to 990 nM
47 | Cc1[nH]nc2c1N=C(c1ccccc1Cl)c1cc([N+](=O)[O-])ccc1N2 | 10 to 990 nM
48 | COc1ccc2c(c1)C(c1ccccc1Cl)=Nc1c(n[nH]c1C)N2 | 10 to 990 nM
49 | O=[N+]([O-])c1ccc2c(c1)C(c1ccccc1Cl)=Nc1c(n[nH]c1-c1ccccc1S)N2 | 10 to 990 nM
50 | CCCc1[nH]nc2c1N=C(c1ccccc1Cl)c1cc([N+](=O)[O-])ccc1N2 | 10 to 990 nM

Row | SMILES | IC50
51 | O=[N+]([O-])c1ccc2c(c1)C(c1ccccc1)=Nc1c[nH]nc1N2 | 10 to 990 nM
52 | O=[N+]([O-])c1ccc2c(c1)C(c1ccccc1Cl)=Nc1c(n[nH]c1-c1cc[nH]n1)N2 | 10 to 990 nM
53 | Cc1[nH]nc2c1N=C(c1ccccc1F)c1cc(C#N)ccc1N2 | 10 to 990 nM
54 | Cc1[nH]nc2c1N=C(c1ccccc1)c1cc([N+](=O)[O-])ccc1N2 | 10 to 990 nM
55 | O=[N+]([O-])c1ccc2c(c1)C(c1ccccc1Cl)=Nc1c(n[nH]c1CO)N2 | 10 to 990 nM
56 | Cc1cn[nH]c1-c1[nH]nc2c1N=C(c1ccccc1Cl)c1cc([N+](=O)[O-])ccc1N2 | 10 to 990 nM
57 | Cc1[nH]nc2c1N=C(c1ccccc1F)c1ccccc1N2 | 10 to 990 nM
58 | CC(=O)Nc1ccc2c(c1)C(c1ccccc1Cl)=Nc1c(n[nH]c1C)N2 | 10 to 990 nM
59 | Cc1[nH]nc2c1N=C(c1ccccc1Cl)c1cc(N)ccc1N2 | 10 to 990 nM
60 | O=C(NCCO)c1ccc2c(c1)C(c1ccccc1F)=Nc1c[nH]nc1N2 | 10 to 990 nM
61 | O=[N+]([O-])c1ccc2c(c1)C(c1ccccc1Cl)=Nc1c(n[nH]c1-c1ccc(-c3ccccc3)cc1)N2 | 10 to 990 nM
62 | Cc1[nH]nc2c1N=C(c1ccccc1Cl)c1cc(Cl)ccc1N2 | 10 to 990 nM
63 | Cc1[nH]nc2c1N=C(c1ccccc1C(F)(F)F)c1cc([N+](=O)[O-])ccc1N2 | 10 to 990 nM
64 | Cc1[nH]nc2c1N=C(c1ccccc1Cl)c1cc(NS(=O)(=O)NCCl)ccc1N2 | 10 to 990 nM
65 | Cc1[nH]nc2c1N=C(c1ccccc1Cl)c1cc(NS(C)(=O)=O)ccc1N2 | 10 to 990 nM
66 | NC(=O)c1ccc2c(c1)C(c1ccccc1F)=Nc1c[nH]nc1N2 | 10 to 990 nM
67 | COc1cc(O)ccc1-c1[nH]nc2c1N=C(c1ccccc1Cl)c1cc([N+](=O)[O-])ccc1N2 | 10 to 990 nM
68 | O=[N+]([O-])c1ccc2c(c1)C(c1ccccc1Cl)=Nc1c[nH]nc1N2 | 10 to 990 nM
69 | Cc1[nH]nc2c1N=C(c1ccccc1F)c1cc(F)ccc1N2 | 10 to 990 nM
70 | NC(=O)c1[nH]nc2c1N=C(c1ccccc1Cl)c1cc([N+](=O)[O-])ccc1N2 | 10 to 990 nM
71 | Cc1[nH]nc2c1N=C(c1ccccc1F)c1cc(C(N)=O)ccc1N2 | 10 to 990 nM
72 | O=[N+]([O-])c1ccc2c(c1)C(c1ccccc1Cl)=Nc1c(n[nH]c1-c1c[nH]cn1)N2 | 10 to 990 nM
73 | CCC(C)c1[nH]nc2c1N=C(c1ccccc1Cl)c1cc([N+](=O)[O-])ccc1N2 (stereo not drawn) | 10 to 990 nM
